Numbers after ± are expanded uncertainties.
Conditions: 101.33 kPa, Liquid; for electrical conductivity: Alternating current cell with electrodes; for mass density: Vibrating tube method

With `CCCCn1cc[n+](C)c1.F[B-](F)(F)F` [1-butyl-3-methylimidazolium tetrafluoroborate] the electrical conductivity (238.05 K) was 0.00212 ± 2e-05 S/m, the electrical conductivity (248.05 K) was 0.00778 ± 8e-05 S/m and the electrical conductivity (258.05 K) was 0.0225 ± 0.0002 S/m. For the same compound, the electrical conductivity (268.1 K) was 0.0542 ± 0.0005 S/m, the electrical conductivity (278.1 K) was 0.1132 ± 0.0011 S/m and the mass density (278.1 K) was 1215.43 ± 2.9 kg/m3. For the same compound, the electrical conductivity (288.15 K) was 0.211 ± 0.002 S/m, the mass density (288.15 K) was 1209.33 ± 2.8 kg/m3 and the electrical conductivity (298.15 K) was 0.352 ± 0.004 S/m. For the same compound, the mass density (298.15 K) was 1202.08 ± 2.8 kg/m3, the electrical conductivity (308.15 K) was 0.556 ± 0.006 S/m and the mass density (308.15 K) was 1194.78 ± 2.8 kg/m3. It also gave an electrical conductivity (318.15 K) of 0.821 ± 0.008 S/m, a mass density (318.15 K) of 1187.79 ± 2.7 kg/m3 and an electrical conductivity (328.15 K) of 1.15 ± 0.012 S/m. It also gave a mass density (328.15 K) of 1180.62 ± 2.7 kg/m3, an electrical conductivity (338.15 K) of 1.545 ± 0.015 S/m and a mass density (338.15 K) of 1173.51 ± 2.6 kg/m3. It also gave an electrical conductivity (348.15 K) of 2 ± 0.02 S/m, an electrical conductivity (358.15 K) of 2.52 ± 0.03 S/m and an electrical conductivity (368.15 K) of 3.1 ± 0.03 S/m. For the same compound, the electrical conductivity (378.15 K) was 3.73 ± 0.04 S/m, the electrical conductivity (388.15 K) was 4.41 ± 0.04 S/m and the electrical conductivity (398.15 K) was 5.13 ± 0.05 S/m. The electrical conductivity (408.15 K) was 5.88 ± 0.06 S/m, the electrical conductivity (418.15 K) was 6.64 ± 0.07 S/m and the electrical conductivity (428.15 K) was 7.45 ± 0.07 S/m. For the same compound, the electrical conductivity (438.15 K) was 8.29 ± 0.08 S/m, the electrical conductivity (448.15 K) was 9.15 ± 0.09 S/m and the electrical conductivity (458.15 K) was 10.04 ± 0.1 S/m. For the same compound, the electrical conductivity (468.15 K) was 10.9 ± 0.11 S/m.
In the case of `CCCCCCn1cc[n+](C)c1.F[B-](F)(F)F` [1-hexyl-3-methylimidazolium tetrafluoroborate], the electrical conductivity (238.05 K) is reported as 0.000405 ± 4e-06 S/m, the electrical conductivity (248.05 K) is reported as 0.00169 ± 1.7e-05 S/m and the electrical conductivity (258.05 K) is reported as 0.00544 ± 5e-05 S/m. For the same compound, the electrical conductivity (268.1 K) was 0.0145 ± 0.00015 S/m, the electrical conductivity (278.1 K) was 0.0332 ± 0.0003 S/m and the mass density (278.1 K) was 1159.81 ± 2.6 kg/m3. The electrical conductivity (288.15 K) was 0.0672 ± 0.0007 S/m, the mass density (288.15 K) was 1153.14 ± 2.6 kg/m3 and the electrical conductivity (298.15 K) was 0.1229 ± 0.0012 S/m. It also gave a mass density (298.15 K) of 1146.18 ± 2.5 kg/m3, an electrical conductivity (308.15 K) of 0.207 ± 0.002 S/m and a mass density (308.15 K) of 1139.15 ± 2.5 kg/m3. The electrical conductivity (318.15 K) was 0.326 ± 0.003 S/m, the mass density (318.15 K) was 1132.31 ± 2.5 kg/m3 and the electrical conductivity (328.15 K) was 0.483 ± 0.005 S/m. It also gave a mass density (328.15 K) of 1125.18 ± 2.4 kg/m3, an electrical conductivity (338.15 K) of 0.683 ± 0.007 S/m and a mass density (338.15 K) of 1118.54 ± 2.4 kg/m3. It also gave an electrical conductivity (348.15 K) of 0.926 ± 0.009 S/m, an electrical conductivity (358.15 K) of 1.214 ± 0.012 S/m and an electrical conductivity (368.15 K) of 1.545 ± 0.015 S/m. It also gave an electrical conductivity (378.15 K) of 1.92 ± 0.02 S/m, an electrical conductivity (388.15 K) of 2.33 ± 0.02 S/m and an electrical conductivity (398.15 K) of 2.78 ± 0.03 S/m. It also gave an electrical conductivity (408.15 K) of 3.26 ± 0.03 S/m, an electrical conductivity (418.15 K) of 3.77 ± 0.04 S/m and an electrical conductivity (428.15 K) of 4.31 ± 0.04 S/m. The electrical conductivity (438.15 K) was 4.88 ± 0.05 S/m, the electrical conductivity (448.15 K) was 5.46 ± 0.05 S/m and the electrical conductivity (458.15 K) was 6.07 ± 0.06 S/m. For the same compound, the electrical conductivity (468.15 K) was 6.69 ± 0.07 S/m.
Compound `CCn1cc[n+](C)c1.F[B-](F)(F)F` [1-ethyl-3-methylimidazolium tetrafluoroborate] has an electrical conductivity (248.05 K) of 0.106 ± 0.0011 S/m, an electrical conductivity (258.05 K) of 0.228 ± 0.002 S/m and an electrical conductivity (268.1 K) of 0.423 ± 0.004 S/m. The electrical conductivity (278.1 K) was 0.703 ± 0.007 S/m, the mass density (278.1 K) was 1293.75 ± 3.2 kg/m3 and the electrical conductivity (288.15 K) was 1.08 ± 0.011 S/m. The mass density (288.15 K) was 1288.03 ± 3.2 kg/m3, the electrical conductivity (298.15 K) was 1.546 ± 0.015 S/m and the mass density (298.15 K) was 1280.07 ± 3.2 kg/m3. It also gave an electrical conductivity (308.15 K) of 2.11 ± 0.02 S/m, a mass density (308.15 K) of 1272.48 ± 3.1 kg/m3 and an electrical conductivity (318.15 K) of 2.77 ± 0.03 S/m. It also gave a mass density (318.15 K) of 1265.12 ± 3.1 kg/m3, an electrical conductivity (328.15 K) of 3.51 ± 0.04 S/m and a mass density (328.15 K) of 1256.89 ± 3.1 kg/m3. It also gave an electrical conductivity (338.15 K) of 4.34 ± 0.04 S/m, a mass density (338.15 K) of 1250.24 ± 3 kg/m3 and an electrical conductivity (348.15 K) of 5.23 ± 0.05 S/m. For the same compound, the electrical conductivity (358.15 K) was 6.2 ± 0.06 S/m, the electrical conductivity (368.15 K) was 7.22 ± 0.07 S/m and the electrical conductivity (378.15 K) was 8.29 ± 0.08 S/m. It also gave an electrical conductivity (388.15 K) of 9.41 ± 0.09 S/m, an electrical conductivity (398.15 K) of 10.6 ± 0.11 S/m and an electrical conductivity (408.15 K) of 11.8 ± 0.12 S/m. It also gave an electrical conductivity (418.15 K) of 13 ± 0.13 S/m, an electrical conductivity (428.15 K) of 14.22 ± 0.14 S/m and an electrical conductivity (438.15 K) of 15.48 ± 0.15 S/m. For the same compound, the electrical conductivity (448.15 K) was 16.8 ± 0.17 S/m, the electrical conductivity (458.15 K) was 18.03 ± 0.18 S/m and the electrical conductivity (468.15 K) was 19.3 ± 0.2 S/m.
In the case of `CCCCCCCC[n+]1ccn(C)c1.F[B-](F)(F)F` [1-methyl-3-octylimidazolium tetrafluoroborate], the electrical conductivity (238.05 K) is reported as 0.0001524 ± 1.5e-06 S/m, the electrical conductivity (248.05 K) is reported as 0.00065 ± 7e-06 S/m and the electrical conductivity (258.05 K) is reported as 0.00218 ± 2e-05 S/m. For the same compound, the electrical conductivity (268.1 K) was 0.00605 ± 6e-05 S/m, the electrical conductivity (278.1 K) was 0.01441 ± 0.00014 S/m and the mass density (278.1 K) was 1116.79 ± 2.4 kg/m3. The electrical conductivity (288.15 K) was 0.0304 ± 0.0003 S/m, the mass density (288.15 K) was 1110.36 ± 2.4 kg/m3 and the electrical conductivity (298.15 K) was 0.0579 ± 0.0006 S/m. For the same compound, the mass density (298.15 K) was 1103.6 ± 2.3 kg/m3, the electrical conductivity (308.15 K) was 0.1012 ± 0.001 S/m and the mass density (308.15 K) was 1096.82 ± 2.3 kg/m3. The electrical conductivity (318.15 K) was 0.1647 ± 0.0016 S/m, the mass density (318.15 K) was 1090.04 ± 2.3 kg/m3 and the electrical conductivity (328.15 K) was 0.252 ± 0.003 S/m. It also gave a mass density (328.15 K) of 1083.22 ± 2.2 kg/m3, an electrical conductivity (338.15 K) of 0.368 ± 0.004 S/m and a mass density (338.15 K) of 1076.46 ± 2.2 kg/m3. The electrical conductivity (348.15 K) was 0.512 ± 0.005 S/m, the electrical conductivity (358.15 K) was 0.688 ± 0.007 S/m and the electrical conductivity (368.15 K) was 0.895 ± 0.009 S/m. It also gave an electrical conductivity (378.15 K) of 1.134 ± 0.011 S/m, an electrical conductivity (388.15 K) of 1.403 ± 0.014 S/m and an electrical conductivity (398.15 K) of 1.701 ± 0.017 S/m. The electrical conductivity (408.15 K) was 2.03 ± 0.02 S/m, the electrical conductivity (418.15 K) was 2.38 ± 0.02 S/m and the electrical conductivity (428.15 K) was 2.75 ± 0.03 S/m. For the same compound, the electrical conductivity (438.15 K) was 3.15 ± 0.03 S/m, the electrical conductivity (448.15 K) was 3.56 ± 0.04 S/m and the electrical conductivity (458.15 K) was 3.99 ± 0.04 S/m. For the same compound, the electrical conductivity (468.15 K) was 4.44 ± 0.04 S/m.
